Our source for the glass transition temperature values is the PolyMetriX glass transition set.

Turning to `*/C=C/c1c(OC(=O)c2ccc(C(=O)Oc3ccc4ccccc4c3/C=C/c3cccc(*)n3)cc2)ccc2ccccc12` (repeat unit), the glass transition temperature stood at 145.00 °C. As for `*C(=O)Nc1cccc(Oc2cccc(Oc3cccc(NC(=O)c4ccc5c(c4)C(=O)N(c4cccc(Oc6cccc(Oc7cccc(N8C(=O)c9ccc(*)cc9C8=O)c7)c6C#N)c4)C5=O)c3)c2C#N)c1` (repeat unit), the figure is 214.00 °C. In turn, `*C(=O)c1ccc2c(c1)C(=O)N(c1c(-c3ccccc3)cc(-c3ccc(-c4cc(-c5ccccc5)c(N5C(=O)c6ccc(*)cc6C5=O)c(-c5ccccc5)c4)cc3)cc1-c1ccccc1)C2=O` (repeat unit) yielded a glass transition temperature of 265.00 °C.

Regarding `*C(=O)c1ccc2c(c1)C(=O)N(c1cc(N3C(=O)c4ccc(*)cc4C3=O)c(O)cc1O)C2=O` (repeat unit), the glass transition temperature worked out at 324.00 °C. `*CCCN(Cc1ccccc1)C(=O)S*` (repeat unit) yielded a glass transition temperature of 27.00 °C. `*CCOC(=O)c1ccc(/C(C#N)=C(\c2ccc(OC)cc2)N2CCC(*)CC2)cc1` (repeat unit): the glass transition temperature was found to be 167.00 °C. As for `*Oc1c(F)c(F)c(Sc2c(F)c(F)c(Oc3ccc(C(c4ccc(*)cc4)(C(F)(F)F)C(F)(F)F)cc3)c(F)c2F)c(F)c1F` (repeat unit), the figure is 141.50 °C; as for `*Oc1ccc(Sc2ccc(Sc3ccc(Sc4ccc(*)cc4)cc3)cc2)cc1` (repeat unit), 84.00 °C.

Turning to `*Oc1ccc2cc(OC(=O)c3ccc(-c4ccc(C(*)=O)cc4)cc3-c3ccccc3)ccc2c1` (repeat unit), the glass transition temperature came out at 125.00 °C. Compound `*Oc1cccc(C(F)(F)C(F)(F)C(F)(F)c2cccc(OC(*)=O)c2)c1` (repeat unit) yielded a glass transition temperature of 46.00 °C. The compound `*Oc1cccc(OC(=O)c2ccc(OC(=O)c3cccc(C(=O)Oc4ccc(C(*)=O)cc4)c3)cc2)c1` (repeat unit) registered a glass transition temperature of 158.00 °C. `*Oc1cccc(OC2(F)C(*)(F)C(F)(F)C2(F)F)c1` (repeat unit): the glass transition temperature amounted to 32.00 °C. The figure for `*Oc1cccc(Oc2ccc(C(=O)O)c(C(=O)Nc3ccc(Oc4ccc(-c5ccc(Oc6ccc(NC(=O)c7cc(*)ccc7C(=O)O)cc6)cc5)cc4)cc3)c2)c1` (repeat unit) is 100.00 °C; for `*Oc1cccc(Oc2ccc(C(=O)Oc3cccc(OC(=O)c4ccc(*)cc4)c3)cc2)c1` (repeat unit) it is 131.00 °C; for `*Oc1cccc(Oc2ccc3c(=O)n4c5cc(Oc6ccc7c(c6)nc6c8ccc(*)c9cccc(c(=O)n76)c98)ccc5nc4c4cccc2c34)c1` (repeat unit) it is 369.50 °C.

As to `*Oc1cccc(Oc2cccc(*)n2)c1` (repeat unit), the glass transition temperature is 82.00 °C.

On to `*Oc1cccc2c(OC(=O)c3ccc(Oc4ccc(C(*)=O)cc4)cc3)cccc12` (repeat unit), for which the glass transition temperature is 171.00 °C. `*Oc1cccc2c(OC3(F)C(*)(F)C(F)(F)C3(F)F)cccc12` (repeat unit) yielded a glass transition temperature of 138.00 °C.

Turning to `*Oc1ccccc1-c1ccccc1Oc1ccc2c(=O)n3c4cc(-c5ccc6c(c5)nc5c7ccc(*)c8cccc(c(=O)n65)c87)ccc4nc3c3cccc1c23` (repeat unit), the glass transition temperature turned out to be 376.00 °C.

For `*SC(C)C(*)=O` (repeat unit), the glass transition temperature is 12.00 °C. The figure for `*SSc1ccc(/N=C/Nc2ccc(*)cc2)cc1` (repeat unit) is 98.00 °C. As to `*Sc1c(C)cc(*)cc1C` (repeat unit), the glass transition temperature turned out to be 198.00 °C. As for `*Sc1ccc(Sc2ccc(Sc3ccc4c(c3)Sc3ccc(*)cc3S4)cc2)cc1` (repeat unit), the glass transition temperature was determined as 154.00 °C.

In the case of `*Sc1ccc(Sc2ccc(Sc3cccc4c3C(=O)N(N3C(=O)c5cccc(*)c5C3=O)C4=O)cc2)cc1` (repeat unit), the glass transition temperature was 266.00 °C. The figure for `*c1cc(N2C(=O)c3ccc(Oc4ccc5ccc(Oc6ccc7c(c6)C(=O)N(*)C7=O)cc5c4)cc3C2=O)cc(C(F)(F)F)c1` (repeat unit) is 235.00 °C; for `*c1ccc(-c2nc3cc(Oc4ccc5nc(*)c(-c6ccccc6)nc5c4)ccc3nc2-c2ccccc2)cc1` (repeat unit) it is 326.00 °C; for `*c1ccc(-c2nc3ccc(Oc4ccc5nc(*)c(-c6ccccc6)nc5c4)cc3nc2-c2ccccc2)cc1` (repeat unit) it is 304.00 °C. As for `*c1ccc(C(=O)Oc2ccc3ccc(OC(=O)c4ccc(N5C(=O)CC(SCCOCCSC6CC(=O)N(*)C6=O)C5=O)cc4)cc3c2)cc1` (repeat unit), the figure is 160.00 °C; as for `*c1ccc(C(c2ccc(N3C(=O)c4ccc(Oc5ccc6cc(Oc7ccc8c(c7)C(=O)N(*)C8=O)ccc6c5)cc4C3=O)cc2)(C(F)(F)F)C(F)(F)F)cc1` (repeat unit), 218.00 °C.

As to `*c1ccc(C(c2ccccc2)c2ccc(N3C(=O)c4ccc(Oc5ccc6c(c5)C(=O)N(*)C6=O)cc4C3=O)cc2)cc1` (repeat unit), the glass transition temperature came to 269.00 °C. Consider `*c1ccc(Cc2ccc(N3C(=O)c4ccc(Oc5ccc6c(c5)C(=O)N(*)C6=O)cc4C3=O)cc2)cc1` (repeat unit), for which the glass transition temperature is 271.00 °C. Regarding `*c1ccc(Oc2cc3ccccc3cc2Oc2ccc(N3C(=O)c4ccc(Oc5ccc6c(c5)C(=O)N(*)C6=O)cc4C3=O)cc2)cc1` (repeat unit), the glass transition temperature worked out at 275.50 °C. The figure for `*c1ccc(Oc2ccc(-c3ccc(Oc4ccc(N5C(=O)c6ccc(Oc7ccc8ccc(Oc9ccc%10c(c9)C(=O)N(*)C%10=O)cc8c7)cc6C5=O)cc4)cc3)cc2)cc1` (repeat unit) is 231.00 °C; for `*c1ccc(Oc2ccc(-c3nc4cc(Oc5ccc6nc(*)c(-c7ccccc7)nc6c5)ccc4nc3-c3ccccc3)cc2)cc1` (repeat unit) it is 243.00 °C.

`*c1ccc(Oc2ccc(-c3nc4cc(Oc5ccc6nc(-c7ccccc7)c(*)nc6c5)ccc4nc3-c3ccccc3)cc2)cc1` (repeat unit) displayed a glass transition temperature of 263.00 °C.

The compound `*c1ccc(Oc2ccc(-c3nc4ccc(Oc5ccc6nc(*)c(-c7ccccc7)nc6c5)cc4nc3-c3ccccc3)cc2)cc1` (repeat unit) gave a glass transition temperature of 437.00 °C. As for `*c1ccc(Oc2ccc(C3(c4ccc(Oc5ccc(N6C(=O)c7ccc(Oc8ccccc8Oc8ccc9c(c8)C(=O)N(*)C9=O)cc7C6=O)cc5C(F)(F)F)cc4)c4ccccc4-c4ccccc43)cc2)c(C(F)(F)F)c1` (repeat unit), the figure is 241.00 °C; as for `*c1ccc(Oc2ccc(N3C(=O)c4ccc(Oc5cccc(Oc6ccc7c(c6)C(=O)N(*)C7=O)c5)cc4C3=O)cc2)cc1` (repeat unit), 209.00 °C; as for `*c1ccc(Oc2ccc(N3C(=O)c4ccc(Oc5ccccc5Oc5ccc6c(c5)C(=O)N(*)C6=O)cc4C3=O)cc2)cc1` (repeat unit), 212.00 °C. As for `*c1ccc(Oc2cccc(Oc3ccc(N4C(=O)c5ccc(Oc6cccc(Oc7ccc8c(c7)C(=O)N(*)C8=O)c6)cc5C4=O)cc3)c2)cc1` (repeat unit), the figure is 188.00 °C. The figure for `*c1ccc(Oc2ccccc2N2C(=O)c3ccc(Oc4ccc5c(c4)C(=O)N(*)C5=O)cc3C2=O)cc1` (repeat unit) is 264.00 °C; for `*c1ccc(Oc2ccccc2Oc2ccc(N3C(=O)c4ccc(Oc5ccc6c(c5)C(=O)N(*)C6=O)cc4C3=O)cc2C(F)(F)F)c(C(F)(F)F)c1` (repeat unit) it is 223.00 °C. In turn, `*c1ccc(Sc2cc3c(cc2Sc2ccc(N4C(=O)C5C6C=CC(C7C(=O)N(*)C(=O)C67)C5C4=O)cc2)C(=O)N(CCN(C)C)C3=O)cc1` (repeat unit) had a glass transition temperature of 310.00 °C. As for `*c1ccc(Sc2cc3c(cc2Sc2ccc(N4C(=O)C5C6C=CC(C7C(=O)N(*)C(=O)C67)C5C4=O)cc2)C(=O)N(CCc2ccccc2)C3=O)cc1` (repeat unit), the figure is 258.00 °C; as for `*c1ccc(Sc2cc3c(cc2Sc2ccc(N4C(=O)c5ccc(Oc6ccc7c(c6)C(=O)N(*)C7=O)cc5C4=O)cc2)C(=O)N(CCCCCCCCCCCCCCCC)C3=O)cc1` (repeat unit), 156.00 °C; as for `*c1ccc(Sc2cc3c(cc2Sc2ccc(N4C(=O)c5ccc(Oc6ccc7c(c6)C(=O)N(*)C7=O)cc5C4=O)cc2)C(=O)N(CCc2ccccc2)C3=O)cc1` (repeat unit), 218.00 °C. `*c1ccc(Sc2ccc(Sc3ccc(N4C(=O)c5ccc(Sc6ccc(Sc7ccc(Sc8ccc9c(c8)C(=O)N(*)C9=O)cc7)cc6)cc5C4=O)cc3)s2)cc1` (repeat unit) had a glass transition temperature of 185.50 °C. The figure for `*c1ccc2cc(OC(=O)c3cccc(C(=O)Oc4ccc5cc(-c6nc7ccccc7nc6*)ccc5c4)c3)ccc2c1` (repeat unit) is 151.00 °C.

The compound `*c1cccc(-c2nc3ccc(Oc4ccc5nc(*)c(-c6ccccc6)nc5c4)cc3nc2-c2ccccc2)c1` (repeat unit) yielded a glass transition temperature of 270.00 °C. The figure for `*c1cccc(C(c2ccccc2)(c2cccc(N3C(=O)c4ccc(Oc5ccc6c(c5)C(=O)N(*)C6=O)cc4C3=O)c2)C(F)(F)F)c1` (repeat unit) is 293.00 °C; for `*c1cccc(N2C(=O)c3ccc(Oc4ccc5ccc(Oc6ccc7c(c6)C(=O)N(*)C7=O)cc5c4)cc3C2=O)c1` (repeat unit) it is 254.00 °C.

Turning to `*c1cccc(N2C(=O)c3ccc(Oc4cccc(Oc5ccc6c(c5)C(=O)N(*)C6=O)c4)cc3C2=O)c1` (repeat unit), the glass transition temperature is 224.00 °C. The figure for `*c1cccc(N2C(=O)c3ccc(Oc4cccc5c(Oc6ccc7c(c6)C(=O)N(*)C7=O)cccc45)cc3C2=O)c1` (repeat unit) is 260.00 °C; for `*c1cccc(N2C(=O)c3cccc(Oc4cccc(Oc5cccc6c5C(=O)N(*)C6=O)c4)c3C2=O)c1` (repeat unit) it is 241.00 °C. For `*c1cccc(Oc2ccc(Oc3cccc(N4C(=O)c5ccc(Oc6ccc7c(c6)C(=O)N(*)C7=O)cc5C4=O)c3)cc2)c1` (repeat unit), the glass transition temperature amounted to 204.00 °C.
